Biological target: human FXR (NR1H4) (Homo sapiens (Human), UniProt Q96RI1)
Assay: Human FXR (NR1H4) Assay (Gal4 promoter driven luciferase reporter, Indigo Bioscience kit);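 for Efficacy (%): 100% equals the efficacy of CDCA; efficacy normalized to CDCA set as 100%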
Assay type: cell-based
Settings: for EC50: Human FXR (NR1H4) Assay, potency ranges; for Emax: read-out: Efficacy (%)
How it was run: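 CHO reporter cells expressing human FXR with an FXR-responsive luciferase reporter, treated with compound doses at 0.2% DMSO. Incubation lasted 22 h at 37 °C before luciferase detection reagent was added. Luminescence was then read.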

Sequence of human FXR (NR1H4) (Q96RI1 whole entry, the tested form may be a part): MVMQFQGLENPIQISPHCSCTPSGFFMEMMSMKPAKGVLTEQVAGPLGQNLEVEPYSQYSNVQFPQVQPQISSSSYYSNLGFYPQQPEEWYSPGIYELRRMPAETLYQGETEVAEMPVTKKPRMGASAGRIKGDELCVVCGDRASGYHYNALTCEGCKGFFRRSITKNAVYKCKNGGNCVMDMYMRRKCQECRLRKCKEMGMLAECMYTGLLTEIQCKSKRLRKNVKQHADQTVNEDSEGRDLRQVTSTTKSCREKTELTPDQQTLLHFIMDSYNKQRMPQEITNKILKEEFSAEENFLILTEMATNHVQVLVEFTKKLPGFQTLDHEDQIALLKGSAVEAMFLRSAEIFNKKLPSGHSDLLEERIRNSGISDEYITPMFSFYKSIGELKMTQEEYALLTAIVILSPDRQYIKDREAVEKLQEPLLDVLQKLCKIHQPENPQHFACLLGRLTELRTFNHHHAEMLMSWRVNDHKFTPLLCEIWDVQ

Row | SMILES | EC50 [nM] | Emax [%]
1 | CC[C@H]1[C@@H](O)[C@@H]2[C@H](CC[C@]3(C)[C@@H]([C@H](C)CCCOC(=O)NS(=O)(=O)N(C)C)CC[C@@H]23)[C@@]2(C)CC[C@@H](O)C[C@@H]12 [Example 118] | 100 to 1000 | 367
2 | CC[C@H]1[C@@H](O)[C@@H]2[C@H](CC[C@]3(C)[C@@H]([C@H](C)CCCOC(=O)NS(=O)(=O)N4CCCC4)CC[C@@H]23)[C@@]2(C)CC[C@@H](O)C[C@@H]12 [Example 119] | 1000 to 10000 | 370
3 | CC[C@H]1[C@@H](O)[C@@H]2[C@H](CC[C@]3(C)[C@@H]([C@H](C)CCCOC(=O)NS(=O)(=O)C4CCCC4)CC[C@@H]23)[C@@]2(C)CC[C@@H](O)C[C@@H]12 [Example 120] | 100 to 1000 | 485
4 | CC[C@H]1[C@@H](O)[C@@H]2[C@H](CC[C@]3(C)[C@@H]([C@H](C)CCCOC(=O)Nc4ccc(C(C)(C)C)cc4)CC[C@@H]23)[C@@]2(C)CC[C@@H](O)C[C@@H]12 [Example 121] | 1000 to 10000 | 8
5 | CC[C@H]1[C@@H](O)[C@@H]2[C@H](CC[C@]3(C)[C@@H]([C@H](C)CCCOC(=O)NC4CC4)CC[C@@H]23)[C@@]2(C)CC[C@@H](O)C[C@@H]12 [Example 122] | 100 to 1000 | 204
6 | CC[C@H]1[C@@H](O)[C@@H]2[C@H](CC[C@]3(C)[C@@H]([C@H](C)CCOC(=O)NC4CC4)CC[C@@H]23)[C@@]2(C)CC[C@@H](O)C[C@@H]12 [Example 123] | < 100 | 379
7 | CC[C@H]1[C@@H](O)[C@@H]2[C@H](CC[C@]3(C)[C@@H]([C@H](C)CCCOC(=O)NCc4ccccc4)CC[C@@H]23)[C@@]2(C)CC[C@@H](O)C[C@@H]12 [Example 124] | 100 to 1000 | 225
8 | CC[C@H]1[C@@H](O)[C@@H]2[C@H](CC[C@]3(C)[C@@H]([C@H](C)CCOC(=O)NCc4ccccc4)CC[C@@H]23)[C@@]2(C)CC[C@@H](O)C[C@@H]12 [Example 125] | 100 to 1000 | 305
9 | CC[C@H]1[C@@H](O)[C@@H]2[C@H](CC[C@]3(C)[C@@H]([C@H](C)CCCOC(=O)NC4CCCCC4)CC[C@@H]23)[C@@]2(C)CC[C@@H](O)C[C@@H]12 [Example 126] | 1000 to 10000 | 187
10 | CC[C@H]1[C@@H](O)[C@@H]2[C@H](CC[C@]3(C)[C@@H]([C@H](C)CCOC(=O)NC4CCCCC4)CC[C@@H]23)[C@@]2(C)CC[C@@H](O)C[C@@H]12 [Example 127] | 100 to 1000 | 308
11 | CC[C@H]1[C@@H](O)[C@@H]2[C@H](CC[C@]3(C)[C@@H]([C@H](C)CCCOC(=O)N(C)C)CC[C@@H]23)[C@@]2(C)CC[C@@H](O)C[C@@H]12 [Example 128] | 1000 to 10000 | 138
12 | CC[C@H]1[C@@H](O)[C@@H]2[C@H](CC[C@]3(C)[C@@H]([C@H](C)CCOC(=O)N(C)C)CC[C@@H]23)[C@@]2(C)CC[C@@H](O)C[C@@H]12 [Example 129] | 100 to 1000 | 323
13 | CC[C@H]1[C@@H](O)[C@@H]2[C@H](CC[C@]3(C)[C@@H]([C@H](C)CCCOC(=O)N4CCOCC4)CC[C@@H]23)[C@@]2(C)CC[C@@H](O)C[C@@H]12 [Example 130] | 1000 to 10000 | 256
14 | CC[C@H]1[C@@H](O)[C@@H]2[C@H](CC[C@]3(C)[C@@H]([C@H](C)CCCOC(=O)N4CCCC4)CC[C@@H]23)[C@@]2(C)CC[C@@H](O)C[C@@H]12 [Example 131] | 100 to 1000 | 202
15 | CC[C@H]1[C@@H](O)[C@@H]2[C@H](CC[C@]3(C)[C@@H]([C@H](C)CCCOC(=O)N(CC)CC)CC[C@@H]23)[C@@]2(C)CC[C@@H](O)C[C@@H]12 [Example 132] | 1000 to 10000 | 205
16 | CC[C@H]1[C@@H](O)[C@@H]2[C@H](CC[C@]3(C)[C@@H]([C@H](C)CCOC(=O)NC4CCC4)CC[C@@H]23)[C@@]2(C)CC[C@@H](O)C[C@@H]12 [Example 133] | < 100 | 283
17 | CC[C@H]1[C@@H](O)[C@@H]2[C@H](CC[C@]3(C)[C@@H]([C@H](C)CCOC(=O)NC4CCCC4)CC[C@@H]23)[C@@]2(C)CC[C@@H](O)C[C@@H]12 [Example 134] | 100 to 1000 | 267
18 | CC[C@H]1[C@@H](O)[C@@H]2[C@H](CC[C@]3(C)[C@@H]([C@H](C)CCOC(=O)NC4(C)CC4)CC[C@@H]23)[C@@]2(C)CC[C@@H](O)C[C@@H]12 [Example 135] | 100 to 1000 | 224
19 | CC[C@H]1[C@@H](O)[C@@H]2[C@H](CC[C@]3(C)[C@@H]([C@H](C)CCOC(=O)NC(C)C)CC[C@@H]23)[C@@]2(C)CC[C@@H](O)C[C@@H]12 [Example 136] | 100 to 1000 | 185
20 | CC[C@H]1[C@@H](O)[C@@H]2[C@H](CC[C@]3(C)[C@@H]([C@H](C)CCOC(=O)NCC(C)C)CC[C@@H]23)[C@@]2(C)CC[C@@H](O)C[C@@H]12 [Example 137] | 100 to 1000 | 270

Row | SMILES | EC50 [nM] | Emax [%]
21 | CC[C@H]1[C@@H](O)[C@@H]2[C@H](CC[C@]3(C)[C@@H]([C@H](C)CCOC(=O)NC4CCCCCC4)CC[C@@H]23)[C@@]2(C)CC[C@@H](O)C[C@@H]12 [Example 138] | 100 to 1000 | 297
22 | CC[C@H]1[C@@H](O)[C@@H]2[C@H](CC[C@]3(C)[C@@H]([C@H](C)CCOC(=O)NC(C)CO)CC[C@@H]23)[C@@]2(C)CC[C@@H](O)C[C@@H]12 (stereo partly drawn) [Example 139] | 100 to 1000 | 310
23 | CC[C@H]1[C@@H](O)[C@@H]2[C@H](CC[C@]3(C)[C@@H]([C@H](C)CCOC(=O)NCCSC)CC[C@@H]23)[C@@]2(C)CC[C@@H](O)C[C@@H]12 [Example 140] | 100 to 1000 | 246
24 | CC[C@H]1[C@@H](O)[C@@H]2[C@H](CC[C@]3(C)[C@@H]([C@H](C)CCOC(=O)NCCc4c[nH]c5ccccc45)CC[C@@H]23)[C@@]2(C)CC[C@@H](O)C[C@@H]12 [Example 141] | 100 to 1000 | 293
25 | CC[C@H]1[C@@H](O)[C@@H]2[C@H](CC[C@]3(C)[C@@H]([C@H](C)CCOC(=O)NCC(C)(C)O)CC[C@@H]23)[C@@]2(C)CC[C@@H](O)C[C@@H]12 [Example 142] | 100 to 1000 | 247
26 | CC[C@H]1[C@@H](O)[C@@H]2[C@H](CC[C@]3(C)[C@@H]([C@H](C)CCOC(=O)NCCc4cccs4)CC[C@@H]23)[C@@]2(C)CC[C@@H](O)C[C@@H]12 [Example 143] | 100 to 1000 | 202
27 | CC[C@H]1[C@@H](O)[C@@H]2[C@H](CC[C@]3(C)[C@@H]([C@H](C)CCOC(=O)NCCc4ccc(OC)c(OC)c4)CC[C@@H]23)[C@@]2(C)CC[C@@H](O)C[C@@H]12 [Example 144] | 100 to 1000 | 229
28 | CCOC(=O)C1CCN(C(=O)OCC[C@@H](C)[C@H]2CC[C@H]3[C@@H]4[C@H](O)[C@H](CC)[C@@H]5C[C@H](O)CC[C@]5(C)[C@H]4CC[C@]23C)CC1 [Example 145] | 1000 to 10000 | 247
29 | CC[C@H]1[C@@H](O)[C@@H]2[C@H](CC[C@]3(C)[C@@H]([C@H](C)CCOC(=O)N4CCCCC4)CC[C@@H]23)[C@@]2(C)CC[C@@H](O)C[C@@H]12 [Example 146] | < 100 | 223
30 | CC[C@H]1[C@@H](O)[C@@H]2[C@H](CC[C@]3(C)[C@@H]([C@H](C)CCOC(=O)N4CCCC4)CC[C@@H]23)[C@@]2(C)CC[C@@H](O)C[C@@H]12 [Example 147] | < 100 | 228
31 | CC[C@H]1[C@@H](O)[C@@H]2[C@H](CC[C@]3(C)[C@@H]([C@H](C)CCCOC(=O)N4CCC(N5CCCCC5)CC4)CC[C@@H]23)[C@@]2(C)CC[C@@H](O)C[C@@H]12 [Example 148] | 1000 to 10000 | 37
32 | CC[C@H]1[C@@H](O)[C@@H]2[C@H](CC[C@]3(C)[C@@H]([C@H](C)CCCOC(=O)N(C)OC)CC[C@@H]23)[C@@]2(C)CC[C@@H](O)C[C@@H]12 [Example 149] | 1000 to 10000 | 232
33 | CCCCCNC(=O)OCC[C@@H](C)[C@H]1CC[C@H]2[C@@H]3[C@H](O)[C@H](CC)[C@@H]4C[C@H](O)CC[C@]4(C)[C@H]3CC[C@]12C [Example 150] | 100 to 1000 | 303
34 | CC[C@H]1[C@@H](O)[C@@H]2[C@H](CC[C@]3(C)[C@@H]([C@H](C)CCOC(=O)NCCN4CCOCC4)CC[C@@H]23)[C@@]2(C)CC[C@@H](O)C[C@@H]12 [Example 151] | 100 to 1000 | 253
35 | CC[C@H]1[C@@H](O)[C@@H]2[C@H](CC[C@]3(C)[C@@H]([C@H](C)CCOC(=O)NCCCN4CCOCC4)CC[C@@H]23)[C@@]2(C)CC[C@@H](O)C[C@@H]12 [Example 152] | 100 to 1000 | 276
36 | CC[C@H]1[C@@H](O)[C@@H]2[C@H](CC[C@]3(C)[C@@H]([C@H](C)CCOC(=O)NCCO)CC[C@@H]23)[C@@]2(C)CC[C@@H](O)C[C@@H]12 [Example 153] | 100 to 1000 | 230
37 | CC[C@H]1[C@@H](O)[C@@H]2[C@H](CC[C@]3(C)[C@@H]([C@H](C)CCOC(=O)N[C@H](C(=O)OC)C(C)C)CC[C@@H]23)[C@@]2(C)CC[C@@H](O)C[C@@H]12 [Example 154] | 100 to 1000 | 138
38 | CC[C@H]1[C@@H](O)[C@@H]2[C@H](CC[C@]3(C)[C@@H]([C@H](C)CCOC(=O)N[C@H](C(=O)O)C(C)C)CC[C@@H]23)[C@@]2(C)CC[C@@H](O)C[C@@H]12 [Example 155] | 100 to 1000 | 278
39 | CCOC(=O)CNC(=O)OCC[C@@H](C)[C@H]1CC[C@H]2[C@@H]3[C@H](O)[C@H](CC)[C@@H]4C[C@H](O)CC[C@]4(C)[C@H]3CC[C@]12C [Example 156] | 100 to 1000 | 193
